The values that follow come from patent US10898548B2, “Modulators of protein tyrosine phosphatase and uses thereof” (LEUVAS THERAPEUTICS, priority 2015, dated 2021).

For experiment [1], the system named is human primary monocytes. The experiment can be described thus: static adhesion of fMLP-stimulated monocytes to fibrinogen. It is filed as cell-based. More on the design: fMLP-triggered static adhesion to fibrinogen: unit not given here. Particulars: CTRL 100; for fMLP-induced adhesion to fibrinogen: 40 μM P1 or P1-TKIP, 100 μM AG490, 200 μM WHI-P154, 1 hour, 50 nM fMLP 60 sec; for fMLP-triggered static adhesion to fibrinogen: monocytes. The method, then: We investigated the functional effect of PTPRG activation on integrin activation and mediated adhesion by chemoattractants in human primary monocytes and PMNs in a static and flow adhesion assays. Briefly, human primary monocytes or polymorphonuclear cells were suspended at 5×10^6/ml in standard adhesion buffer. Adhesion assays were performed on 18-well glass slides coated with 1 mg/ml human fibrinogen or with 1 μg/ml human ICAM-1 in PBS; 20 μl of cell suspension were added to the coated wells and stimulated for 1 min at 37° C. with 5 μl of fMLP, 0.05 μM final concentration. After rapid washing, adherent cells were fixed in ice-cold 1.5% glutaraldehyde in PBS, and still images of adherent cells in 0.2 mm^2 fields were acquired al 20× phase contrast magnification, NA 0.40, with a charge-coupled device camera (ICD-42B; Ikegami) connected to an inverted microscope (IX50; Olympus). Image acquisition and computer-assisted enumeration of adherent cells were performed with ImageJ (National Institute of Health). […]
To evaluate whether JAK2 mediates chemoattractant-induced adhesion of human monocytes to beta-2 integrin substrates human monocytes were treated control buffer or P1 or with the three JAK inhibitors. Briefly, human monocytes were treated with buffer (CTRL=control), or 40 μM P1 or P1-TKIP peptides, 100 μM AG490 or 200 μM WHI-P154 for 1 hour at 37° C. and stimulated with 50 nM fMLP for 60 sec.; data are mean and standard deviation (SD) of 6 experiments in triplicate.

Experiment [2] concerns the target T1, JAK2 (Homo sapiens, UniProt O60674).
T1 construct: endogenous in cells; host or cells: human primary monocytes
Nature of the experiment: phospho-JAK2 Western Blot on monocytes. The experiment is classed as cell-based. As to conditions: 50 nM fMLP 180 sec. An excerpt: JAK2 regulation by PTPRG as assessed through the high-throughput phospho-proteomics analysis evidenced that PTPRG activation (Example 4, Table 9 and 10) provides a useful example of the exploitation of this analysis system for identification of targets and unexpected indications/uses for known and novel agents that regulate the phoshoproteome. […] Furthermore, the capability of fMLP to trigger JAKs activation has never been observed. The results described in Example 4 unexpectedly implicate JAK2 de-phosphorylation by PTPRG as playing a role in the anti-adhesive role of PTPRG on monocytes. To test this system-generated hypothesis we first set out to define the role of JAK2 in fMLP-triggered rapid adhesion in monocytes. Time course experiments, either performed with ELISA assay or Western Blot. Briefly, purified human monocytes were treated with buffer (resting) or with 50 nM fMLP for the indicated times (Table 12), and the phosphorylation was assessed by p-Jak2 elisa and Western Blot analysis. The JAK2 activation was determined with Elisa Kit JAK2 (pYpY1007/1008) (Invitrogen). Briefly, cells were stimulated with agonist and lysed following manufacturer's protocol; levels of phospho-JAK2 were quantified (absorbance at 450 nm) with a micro-well plate reader (Victor™ X5 Multilabel Plate Reader, Perkin Elmer). For Western blot analysis, cells were lysed in ice-cold 1% Nonidet P-40 buffer, containing phosphatase inhibitors and complete protease inhibitor cocktail (Roche). Total cell lysates were quantified by Bradford assay (Bio-Rad). Equal amounts of total lysates or of isolated membranes (as described in Example 1) were subjected to 10% SDS-PAGE and then blotted. After incubation with anti-PTPRG, anti gp91^Phox, anti phospho-JAK2, anti JAK2 and HRP-linked secondary antibodies (GE Healthcare), immunoreactive bands were visualized by ECL detection (EMD Millipore). Intensities of band signals were quantified by densitometric analysis (Quantity One, Bio-Rad) by using ImageQuant Las4000. Data are mean value of three experiments; the relative ratio of the band intensity of phosphor-JAK2 was normalized to the level of JAK2 band intensities.
To evaluate whether JAK2 mediates fMLP-triggered rapid adhesion in human monocytes, we tested the capability of three JAK inhibitors, AG490, WHI-P154 and P1-TKIP peptide, to block adhesion triggering. Briefly, Monocytes were treated with buffer (resting and Control=CTRL), 100 μM AG490, 40 μM P1 or P1-TKIP peptides, or 200 μM WHI-P154 for 1 hour at 37° C. and stimulated with 50 nM fMLP for 180 sec. Cell lysates were probed with anti phospho-JAK2 and with anti JAK2. Western Blot immuoreactive band quantification; the relative ratio of the band intensity of phospho-JAK2 was normalized to the level of JAK2 band intensities; mean values of three experiments (Table 13).
The impact of TAT-ICD and P1-WD on JAK2 activation by chemoattractants was also evaluated by Western Blot analysis. Briefly, monocytes were treated with buffer (Resting, CTRL), 0.5 uM TAT-ICD, 50 μM TAT peptide, 50 μM P1-WD, P1 or P1-WD scrambled peptides for 1 hour at 37° C. and stimulated with 50 nM fMLP for 180 sec (the resting cells were not stimulated with fMLP). Total lysates were probed with anti phospho-JAK2 or with anti JAK. Western Blot immunoreactive bands were quantified and the relative ratio of the band intensity of phospho-JAK2 was normalized to the level of JAK2 band intensities; data are mean value and standard deviation of three experiments (Table 19).
A general note: A western blot detects proteins with antibodies after separation by electrophoresis.

The mark [3] stands for this setting: 100 μM AG490, 40 μM P1 or P1-TKIP, 200 μM WHI-P154, 1 hour, CTRL 207.7, Resting 18.8.
Where [4] appears, read: 0.5 uM TAT-ICD, 50 μM TAT, 50 μM P1-WD, P1 or P1-WD scrambled, 1 hour, CTRL 50, Resting 8.

Marks after values point to notes of the source that are not given here.

T1 sequence (O60674 whole entry): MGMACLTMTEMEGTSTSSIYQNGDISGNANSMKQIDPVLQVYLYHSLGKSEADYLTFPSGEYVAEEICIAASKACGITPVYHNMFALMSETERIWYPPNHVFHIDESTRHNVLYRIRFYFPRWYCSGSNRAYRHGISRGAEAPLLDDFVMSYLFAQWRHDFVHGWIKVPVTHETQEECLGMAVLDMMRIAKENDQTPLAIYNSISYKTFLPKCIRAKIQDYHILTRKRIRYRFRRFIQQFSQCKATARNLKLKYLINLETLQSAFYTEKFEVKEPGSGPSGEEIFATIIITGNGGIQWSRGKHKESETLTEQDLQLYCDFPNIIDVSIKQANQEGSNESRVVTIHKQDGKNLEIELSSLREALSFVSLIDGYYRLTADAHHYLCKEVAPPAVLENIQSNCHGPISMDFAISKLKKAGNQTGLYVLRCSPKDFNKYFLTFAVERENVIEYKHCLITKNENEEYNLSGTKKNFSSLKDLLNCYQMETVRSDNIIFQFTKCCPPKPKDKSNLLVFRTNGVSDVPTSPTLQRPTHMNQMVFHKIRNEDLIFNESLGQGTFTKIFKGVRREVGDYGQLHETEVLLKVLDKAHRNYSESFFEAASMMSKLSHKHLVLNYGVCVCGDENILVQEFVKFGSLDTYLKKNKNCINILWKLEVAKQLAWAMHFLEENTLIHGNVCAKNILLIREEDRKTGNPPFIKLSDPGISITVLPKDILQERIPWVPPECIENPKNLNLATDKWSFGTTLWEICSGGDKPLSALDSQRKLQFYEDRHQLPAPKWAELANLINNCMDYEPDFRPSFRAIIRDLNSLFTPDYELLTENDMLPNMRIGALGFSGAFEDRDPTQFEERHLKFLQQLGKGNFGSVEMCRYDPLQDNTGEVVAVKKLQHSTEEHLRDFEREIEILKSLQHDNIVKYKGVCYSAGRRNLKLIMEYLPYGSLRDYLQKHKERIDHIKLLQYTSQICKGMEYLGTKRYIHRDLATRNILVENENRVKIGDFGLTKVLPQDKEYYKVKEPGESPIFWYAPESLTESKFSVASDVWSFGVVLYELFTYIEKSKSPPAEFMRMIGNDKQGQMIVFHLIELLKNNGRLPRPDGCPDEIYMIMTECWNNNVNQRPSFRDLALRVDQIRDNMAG

Molecule `N#C/C(=C/c1ccc(O)c(O)c1)C(=O)NCc1ccccc1` [AG490] had a fMLP-induced adhesion to fibrinogen in experiment [1] of 32.8%. For the same molecule, in experiment [2] (setting [3]), the “phospho-JAK2 band intensity normalized to JAK2, Western Blot” value (shortened to “phospho-JAK2 band intensity normalized”) is 9.2.
With `COc1cc2ncnc(Nc3ccc(O)c(Br)c3)c2cc1OC` [WHI-P154], the fMLP-induced adhesion to fibrinogen in experiment [1] was found to be 18%. Moreover, in experiment [2] (setting [3]), the “phospho-JAK2 band intensity normalized” value is on record as 4.9.
Take “P1-WD: fusion Trojan peptide SEQ ID 3: Penetratin, glycine, PTPRG wedge domain aa 831-856; RQIKIWFQNRRMKWKKGKQFVKHIGELYSNNQHGFSEDFEEVQ (listed as Homo sapiens)”: the “fMLP-triggered static adhesion to fibrinogen” value (shortened to “fMLP-triggered static adhesion”) turned out to be 41 in experiment [1] (P1-WD 10 micromolar), 18 in experiment [1] (P1-WD 25 micromolar) and 16 in experiment [1] (P1-WD 50 micromolar). Besides, the “phospho-JAK2 band intensity normalized” value in experiment [2] (setting [4]) was 12*.
“P1: Penetratin delivery peptide, 16 aa RQIKIWFQNRRMKWKK (SEQ ID 4), control [reference compound]”: the fMLP-induced adhesion to fibrinogen in experiment [1] is 110%. Further, the “fMLP-triggered static adhesion” value in experiment [1] (control peptide, concentration not given) is on record as 94. Further, the figures for the “phospho-JAK2 band intensity normalized” value in experiment [2] (setting [4]) and in experiment [2] (setting [3]) were 49 and 111.4, respectively.
With “TAT (GRKKRRQRRRPPQ; listed as Homo sapiens) [reference compound]”, the “fMLP-triggered static adhesion” value in experiment [1] (0.5 μM) is recorded as 100; in experiment [1] (1 μM), 98. Moreover, in experiment [2] (setting [4]), the “phospho-JAK2 band intensity normalized” value amounted to 40.
Regarding “TAT-ICD: fusion recombinant protein SEQ ID 5: PTPRG intracellular domain aa 797-1445 fused to 13 aa TAT sequence”, the “fMLP-triggered static adhesion” value in experiment [1] (0.01 μM) is recorded as 45.4; in experiment [1] (0.05 μM), 35.5; in experiment [1] (0.10 μM) it was 27.9; in experiment [1] (0.5 μM), 20.1; in experiment [1] (1 μM), 14.0. For the same molecule, in experiment [2] (setting [4]), the “phospho-JAK2 band intensity normalized” value is recorded as 15*.
